After the bases stand the sugars from the 5' end (letter, count) and the backbone: PS all phosphorothioate, else s phosphorothioate and o phosphodiester by linkage. Methylation of C is not given here. l = locked nucleic acid (LNA); d = 2'-deoxy (DNA)
Target: SNHG14
Details: ASO
[1] = Mouse Primary Neuronal Cell, 0.005 µM

Sequence	target mRNA inhibition (Human Neuronal Cell, 0.2 µM) [%]	target mRNA inhibition (Human Neuronal Cell, 1 µM) [%]	target mRNA inhibition (Human Neuronal Cell, 7.5 µM) [%]	other results
ATTCAACCCTAATCAC (sugars l2 d10 l4, PS)	16	26		
GCACATTCTTTCTATAC (sugars l1 d1 l3 d9 l3, PS)			50	
TACATATTGTACTTCT (sugars l4 d10 l2, PS)	18	23		
TTACTCTGCAATACAC (sugars l3 d10 l3, PS)	46	61		
TTTCAGCTTTTAACCAGAGT (sugars l2 d15 l3, PS)			67	
ACTGTTTATACCCTTTC (sugars ldddlddddddddldll, PS)			55	
TACTCTGCAATACACC (sugars l2 d1 l2 d9 l2, PS)			64	
TTACCTACATCTCATAC (sugars l2 d13 l2, PS)	1	-8		target mRNA inhibition (Human Neuronal Cell, 5 µM): 19%; target mRNA inhibition [1]: 79%
TCTTATCCTTGAATTTC (sugars l4 d11 l2, PS)	37	33		
AGATCATTCTCAACAATTA (sugars ldlddldddddddllldll, PS)			50	
AATTTTTTTCTTACTATCTT (sugars lldllldddddddddldlll, PS)			57	
CTGCTTAATTATATCA (sugars l4 d10 l2, PS)	35	38		
GACCACACTTTCTACCA (sugars l2 d13 l2, PS)	27	48		
GTTTCCATCTACTATTAA (sugars lllddlddddddldddll, PS)			47	
AAATTTCTCAACCTAAATTT (sugars l2 d14 l4, PS)	-9	2		
GACCTCAATACTCTACT (sugars l3 d11 l3, PS)	49	58		
TTATAGCCATTCTATCT (sugars l2 d2 l1 d10 l2, PS)			64	
CATTCAACCCTAATCA (sugars l3 d10 l3, PS)	26	38		
AAAATCTCAACTACCATTT (sugars lddddlddddddlllldll, PS)			45	
TAAAATTATTTATACACCA (sugars lllldlddddddllddlll, PS)			31	
ATACACAGCACATATT (sugars l2 d10 l4, PS)	29	43		
ATCCTGTTAATACCAT (sugars l2 d10 l4, PS)	45	39		

Sequence	target mRNA inhibition (Human Neuronal Cell, 0.2 µM) [%]	target mRNA inhibition (Human Neuronal Cell, 1 µM) [%]	target mRNA inhibition (Human Neuronal Cell, 7.5 µM) [%]	other results
TCTTTCCATTTATTTCCA (sugars l4 d12 l2, PS)	53	60		
CCTACATCTCATACTTGC (sugars l2 d13 l3, PS)				target mRNA inhibition [1]: 96.8%
TTTATCAATATCTTCTCAC (sugars lldlllddddddlddddll, PS)			65	
AAATCTCAACTACCATTTTT (sugars ldddldlddddddldlddll, PS)			41	
ACTGTTTATACCCTTTCC (sugars l1 d11 l1 d3 l2, PS)			56	
ATTGATTCAATTCCCTT (sugars lddldddddddlldlll, PS)			61	
TTATACCTTTCTTTAACCCT (sugars ldddddddddddddldldll, PS)			58	
TTCCATTTATTTCCATTTAT (sugars ldldddldddddddldddll, PS)			56	
AAGATCATTCTCAACAAT (sugars lllldlddddddldllll, PS)			-6	
GTTCTACTATACTTTCCT (sugars l2 d1 l1 d12 l2, PS)			60	
TTATAGCCATTCTATCT (sugars llddlddddddldldll, PS)			5	
GAATCTTCTAATTCCAC (sugars l2 d11 l4, PS)	29	31		
CTGTATACACCATCCCA (sugars l1 d3 l1 d10 l2, PS)			65	
ACATCTCATACTTGCTT (sugars l2 d11 l4, PS)	-4	7		target mRNA inhibition (Human Neuronal Cell, 5 µM): 9%; target mRNA inhibition [1]: 96%
AAAATCTCAACTACCATTTT (sugars ldllddldddddddllddll, PS)			5	
CTCAAAGATCATTCTCA (sugars l1 d2 l1 d7 l6, PS)			16	
ACTGTTTATACCCTTTC (sugars l2 d10 l1 d2 l2, PS)			60	
TTTATCTCATGACCAC (sugars l2 d10 l4, PS)	53	63		
AAACTTTCCCAACATTAT (sugars l2 d12 l4, PS)	35	49		
TTCTGTATACACCATCCC (sugars l1 d11 l1 d3 l2, PS)			54	
GTTTATACCCTTTCCAAT (sugars l1 d13 l4, PS)			59	

Source: the OligoGym collection
